The values below come from patent US5254576A, “Diphenyl-heterocyclic-oxazole as platelet aggregation inhibitors” (Bristol-Myers Squibb Company, priority 1992, dated 1993).

Values after ≈ are worked out from the molar mass of the structure shown. Bounds are passed on as bounds.

For test [1], the system named is ADP-induced aggregation of human blood platelets. Description: cells. The note with it: Platelet, read-out: IC50 (human PRP vs ADP).
Another test concerns platelet aggregation. Particulars: prior art (U.S. Pat. No. 4,460,598; EPO 0434034); cited from earlier work.
A further test deals with human PRP vs ADP. Particulars: U.S. Pat. No. 4,460,598; Lautenschlager, et al., Drugs of the Future, 11, 26 (1986); cited from earlier work.

With `COCOc1cccc(-c2ocnc2-c2nc(-c3ccccc3)c(-c3ccccc3)o2)c1` [Compound 10], the IC50 (usually the concentration at which inhibition is half-maximal) in test [1] came out at 28 µg/mL (≈ 66 µM).
For the molecule `O=C(O)COc1cccc(-c2ocnc2-c2nc(-c3ccccc3)c(-c3ccccc3)o2)c1` [Compound 5], the concentration for half-maximal inhibition (IC50) in test [1] amounted to 0.012 µg/mL (≈ 0.0274 µM).
Same read-out and setting: as for `O=C(O)COc1cccc(-c2ocnc2-c2nc(-c3ccsc3)c(-c3ccsc3)o2)c1` [Compound 20], the figure is 0.21 µg/mL (≈ 0.466 µM); as for `COC(=O)COc1cccc(-c2ocnc2-c2nc(-c3ccccc3)c(-c3ccccc3)o2)c1` [Compound 6], 0.012 µg/mL (≈ 0.0265 µM).
Still for that read-out and setting: under `O=C(O)COc1cccc(-c2ocnc2-c2nc(-c3ccccc3)c(-c3ccccc3)s2)c1` [Compound 32] stands 0.096 µg/mL (≈ 0.211 µM); under `COC(=O)COc1cccc(-c2ocnc2-c2nc(-c3ccccc3)c(-c3ccccc3)s2)c1` [Compound 31], 0.26 µg/mL (≈ 0.555 µM); under `O=C(O)COc1cccc(-c2ocnc2-c2nnc(-c3ccccc3)n2-c2ccccc2)c1` [Compound 17], more than 32 µg/mL.
The same measure, in the same setting: as for `O=C(O)COc1cccc(-c2ocnc2-c2nc(-c3ccccc3)c(-c3ccccc3)[nH]2)c1` [Compound 23], the figure is 0.012 µg/mL (≈ 0.0274 µM); as for `COC(=O)COc1cccc(-c2ocnc2-c2nc(-c3ccccc3)c(-c3ccccc3)[nH]2)c1` [Compound 22], 0.13 µg/mL (≈ 0.288 µM).
Consider `COC(=O)COc1cccc(-c2ocnc2-c2nc(-c3ccsc3)c(-c3ccsc3)o2)c1` [Compound 19], for which the concentration for half-maximal inhibition (IC50) in test [1] came out at 0.19 µg/mL (≈ 0.409 µM).
Take `O=C(O)CCCCCCCOc1nc(-c2ccccc2)c(-c2ccccc2)n1-c1ccccc1` [Octimibate]: the “inhibition of platelet aggregation, in words” value with platelet aggregation is listed as “broad spectrum inhibitor of platelet aggregation”. For the same molecule, the “IC50 (human PRP vs ADP)” value in the test with human PRP vs ADP is 1 µg/mL (≈ 2.2 µM).
For `COC(=O)COc1cccc(-c2ocnc2-c2nnc(-c3ccccc3)n2-c2ccccc2)c1` [Compound 16, Methyl [3-[4-(4,5-diphenyl-4H-1,2,4-triazol-3-yl)-5-oxazolyl]phenoxy]acetate], the IC50 in test [1] was more than 32 µg/mL.
The same measure, in the same setting: under `c1ccc(-c2nc(-c3ncoc3-c3cccc(OCc4nnn[nH]4)c3)oc2-c2ccccc2)cc1` [Compound 12, 5-[3-[4-(4,5-Diphenyl-2-oxazolyl)-5-oxazolyl]-phenoxy]methyl-1H-tetrazole] stands 0.06 µg/mL (≈ 0.13 µM).
